Measured values: patent EP1068226B1, “LIPOPEPTIDES INDUCING T LYMPHOCYTIC CYTOTOXICITY BEARING AT LEAST ONE AUXILIARY T EPITOPE, AND USES FOR VACCINATION” (INSTITUT NATIONAL DE LA SANTE ET DE LA RECHERCHE MEDICALE …, priority 1998, dated 1999)
Residues, ends and D or L forms follow the SMILES beside them. *: point of attachment. Palmitoyl = CCCCCCCCCCCCCCCC(=O)*

Assays:
[1] = Solubility and filterability of the lipopeptides; type: physicochemical
Description: Le lipopeptide n° 3 est soluble dans l'acide acétique à 80%. Il peut être stérilisable par filtration sur un microfiltre de 0,22 µm. Il peut être en outre dissous dans une solution DMSO/eau 10% V/V. La mesure de la masse par spectrométrie PDMS-TOF confirme la présence du produit attendu. Le produit s'avère purifiable après injection d'une solution concentrée dans le DMSO, sur colonne Vydac C4, à 60°C, en utilisant un gradient d'acétonitrile, en présence du contre-ion TFA. Le produit est caractérisable par HPLC selon plusieurs méthodes résolutives conventionnelles, sur colonnes Vydac C4, Zorbax C3, Zorbax CN, Zorbax C1, à 60°C, à l'aide de gradients d'acétonitrile en présence d'un contre-ion TFA, ou en utilisant un modificateur organique, tel que l'isopropanol ou le butanol en isocratique.
Le trifluoroacétate du lipopeptide n°3 est soluble dans le DMSO (20-25 mg/mL), et reste soluble après dilution par de l'eau (DMSO 10%). L'échange du contre-ion trifluoroacétate pour un contre-ion acétate peut être réalisé par RP-HPLC sur une colonne C4: le produit dissous dans le DMSO à 80% est injecté sur la colonne équilibrée par le solvant A (acide acétique à 5% dans l'eau). Après élimination des produits non retenus (contre-ions TFA, sels), le produit est élué par l'aide d'un gradient du solvant A vers le solvant B (acétonitrile 80% - acide acétique à 5% - eau 15%). […]

[2] = test system: CTL spécifiques dans les PBMC de patients séropositifs pour HIV; experiment: ELISPOT IFN-γ test on human PBMC of HIV-seropositive donors (antigenicity); type: cell-based, homme; conditions: PBMC of patient HLA-B7 Z118; figure 6c
Description: Des donneurs séropositifs pour HIV ont été sélectionnés pour leur expression en molecules HLA de classe I selon des données bien connues de l'homme du métier en matière de restriction vis-à-vis des peptides et lipopeptides.
Des microplaques de nitrocellulose (Millipore, Bedford, MA) ont été incubées pendant la nuit à 4°C avec 1 µg/ml d'un anticorps de capture anti-Interféron-γ humain dilué dans un tampon carbonate/bicarbonate à pH 9,6 (100 µl/puits). Après cinq lavages, les plaques ont été saturées pendant 2 heures à 37°C avec 200 µl puis lavées. Pour les cultures de cellules humaines, le milieu complet était composé de RPMI 1640, 10% de sérum albumine bovine, 2mM glutamine, d'antibiotiques et de β2-mercaptoéthanol (5 x 10^-5M). Pour le test avec le peptide, des PBMC de patients ont été ajoutés directement dans les microplaques de nitrocellulose (2 x 10^5 cellules/puits) et incubés pendant 24 heures à 37°C en présence de […] du peptide. Pour le test des lipopeptides, les PBMC ont été incubés pendant la nuit à 37 °C avec les lipopeptides, puis ont été lavés et irradiés (3000 rads). Ces cellules ont été utilisées comme cellules stimulatrices dans une co-culture (2 x 10^5 cellules par puits) avec des PBMC syngéniques ( rapport 1/1) dans des plaques de nitrocellulose pendant 24 heures à 37°C. […]

CCCCCCCCCCCCCCCC(=O)NCCCC[C@H](NC(=O)CCCCCCCCCCCCCCC)C(=O)N[C@@H](CO)C(=O)N[C@@H](CO)C(=O)N[C@@H](CCC(N)=O)C(=O)N[C@@H](Cc1ccc(O)cc1)C(=O)N[C@H](C(=O)N[C@@H](CCCCN)C(=O)N[C@@H](C)C(=O)N[C@@H](CC(N)=O)C(=O)N[C@@H](CO)C(=O)N[C@@H](CCCCN)C(=O)N[C@@H](Cc1ccccc1)C(=O)N[C@H](C(=O)NCC(=O)N[C@H](C(=O)N[C@H](C(=O)N[C@@H](CCC(=O)O)C(=O)N[C@@H](CCCNC(=N)N)C(=O)NCC(=O)N[C@@H](CCCNC(=N)N)C(=O)N[C@@H](C)C(=O)N[C@@H](C)C(=O)NCC(=O)N[C@H](C(=O)NCC(=O)N[C@H](C(=O)N[C@@H](CC(C)C)C(=O)N[C@H](C(=O)N[C@H](C(=O)O)C(C)C)[C@@H](C)O)[C@@H](C)CC)[C@@H](C)CC)[C@@H](C)O)[C@@H](C)CC)[C@@H](C)CC)[C@@H](C)CC [lipopeptide n°2] (Palmitoyl-K(Palmitoyl)SSQYIKANSKFIGITERGRAAGIGILTV-OH)
solubilité dans l'eau ([1]; water): comportement voisin du lipopeptide n°1

CCCCCCCCCCCCCCCC(=O)NCCCC[C@H](N)C(=O)N[C@@H](CO)C(=O)N[C@@H](CO)C(=O)N[C@@H](CCC(N)=O)C(=O)N[C@@H](Cc1ccc(O)cc1)C(=O)N[C@H](C(=O)N[C@@H](CCCCN)C(=O)N[C@@H](C)C(=O)N[C@@H](CC(N)=O)C(=O)N[C@@H](CO)C(=O)N[C@@H](CCCCN)C(=O)N[C@@H](Cc1ccccc1)C(=O)N[C@H](C(=O)NCC(=O)N[C@H](C(=O)N[C@H](C(=O)N[C@@H](CCC(=O)O)C(=O)N[C@@H](CCCNC(=N)N)C(=O)NCC(=O)N[C@@H](CCCNC(=N)N)C(=O)N[C@@H](C)C(=O)N[C@@H](C)C(=O)NCC(=O)N[C@H](C(=O)NCC(=O)N[C@H](C(=O)N[C@@H](CC(C)C)C(=O)N[C@H](C(=O)N[C@H](C(=O)O)C(C)C)[C@@H](C)O)[C@@H](C)CC)[C@@H](C)CC)[C@@H](C)O)[C@@H](C)CC)[C@@H](C)CC)[C@@H](C)CC [lipopeptide n°4] (H-K(Palmitoyl)SSQYIKANSKFIGITERGRAAGIGILTV-OH)
solubilité en milieu aqueux ([1]; aqueous medium): n'est soluble en milieu aqueux qu'en présence de DMSO

CCCCCCCCCCCCCCCC(=O)NCCCC[C@H](NC(=O)CCCCCCCCCCCCCCC)C(=O)N[C@@H](CO)C(=O)N[C@@H](CO)C(=O)N[C@@H](CCC(N)=O)C(=O)N[C@@H](Cc1ccc(O)cc1)C(=O)N[C@H](C(=O)N[C@@H](CCCCN)C(=O)N[C@@H](C)C(=O)N[C@@H](CC(N)=O)C(=O)N[C@@H](CO)C(=O)N[C@@H](CCCCN)C(=O)N[C@@H](Cc1ccccc1)C(=O)N[C@H](C(=O)NCC(=O)N[C@H](C(=O)N[C@H](C(=O)N[C@@H](CCC(=O)O)C(=O)N[C@@H](C)C(=O)N[C@@H](C)C(=O)N[C@@H](C)C(=O)N[C@@H](C)C(=O)N[C@@H](C)C(=O)NCC(=O)N[C@H](C(=O)NCC(=O)N[C@H](C(=O)N[C@@H](CC(C)C)C(=O)N[C@H](C(=O)N[C@H](C(=O)O)C(C)C)[C@@H](C)O)[C@@H](C)CC)[C@@H](C)CC)[C@@H](C)O)[C@@H](C)CC)[C@@H](C)CC)[C@@H](C)CC [lipopeptide n° 1] (Palmitoyl-K(Palmitoyl)SSQYIKANSKFIGITEAAAAAGIGILTV-OH)
solubilité dans un mélange DMSO/eau 10% V/V [1]: pratiquement insoluble | solubilité dans l'eau ([1]; water): pratiquement insoluble | solubilité dans l'eau après lyophilisation ([1]; water, after lyophilisation): totalement insoluble

CCCCCCCCCCCCCCCC(=O)NCCCC[C@H](NC(=O)CCCCCCCCCCCCCCC)C(=O)NCC(=O)N[C@@H](CCCNC(=N)N)C(=O)N[C@@H](CCC(N)=O)C(=O)N[C@@H](Cc1ccc(O)cc1)C(=O)N[C@H](C(=O)N[C@@H](CCCCN)C(=O)N[C@@H](C)C(=O)N[C@@H](CC(N)=O)C(=O)N[C@@H](CO)C(=O)N[C@@H](CCCCN)C(=O)N[C@@H](Cc1ccccc1)C(=O)N[C@H](C(=O)NCC(=O)N[C@H](C(=O)N[C@H](C(=O)N[C@@H](CCC(=O)O)C(=O)N[C@@H](CCCNC(=N)N)C(=O)NCC(=O)N[C@@H](CCCNC(=N)N)C(=O)N[C@@H](C)C(=O)N[C@@H](C)C(=O)NCC(=O)N[C@H](C(=O)NCC(=O)N[C@H](C(=O)N[C@@H](CC(C)C)C(=O)N[C@H](C(=O)N[C@H](C(=O)O)C(C)C)[C@@H](C)O)[C@@H](C)CC)[C@@H](C)CC)[C@@H](C)O)[C@@H](C)CC)[C@@H](C)CC)[C@@H](C)CC [lipopeptide n° 3] (Palmitoyl-K(Palmitoyl)GRQYIKANSKFIGITERGRAAGIGILTV-OH)
solubilité dans un mélange DMSO/eau 10% V/V [1]: dissous | solubilité dans l'acide acétique à 80% ([1]; acide acétique à 80%): soluble | solubilité ([1]; acétate salt, compared with the trifluoroacétate): comparable à celle du trifluoroacétate | stérilisation par filtration ([1]; microfiltre de 0,22 µm): stérilisable | solubilité dans le DMSO ([1]; trifluoroacétate salt, DMSO): 20 to 25 mg/mL | solubilité après dilution par de l'eau ([1]; trifluoroacétate salt, DMSO solution diluted with water (DMSO 10%)): reste soluble

NEF 68-76: épitope potentiel de HLA-B7 (FPVTPQVPL; UniProt P04601 68-76, looked up, fragment)
antigénicité (ELISPOT Interféron-γ) [2]: induit efficacement une réponse CTL spécifique
